A word on the Ki: it is a measure of affinity in units of concentration, obtained from inhibition or displacement. Read a low Ki as higher affinity.

Read-outs that look alike come from different tables or passages of the source.

This passage reports Kd and Ki results from paper PMC8160210, “Single tryptophan Y160W mutant of homooligomeric E. coli purine nucleoside phosphorylase implies that dimers forming the hexamer are functionally not equivalent” (Scientific Reports, 2021).

Assay [1] addresses T1, WT PNP/Pi complex (Escherichia coli, UniProt P0ABP8).
T1 construct: made in house
As to the kind of experiment: Thermophoretic (MST) titrations with formycin A. The conditions noted are these: two-binding-site model, 50 mM phosphate, pH 7.6, 25 °C. The arrangement: species or system E. coli. The procedure: (§1) Measurements were performed with Monolith NT115 (NanoTemper). Enzyme was labelled with NT647 fluorescent dye (NanoTemper) according to the protocol provided by the manufacturer. Labelled proteins show fluorescence excitation and emission maxima of approximately 650 and 670 nm, respectively. The series of titrations were performed at a constant protein concentration. Both proteins (WT and mutant), and ligands were dissolved in 50 mM Tris/HCl pH 7.6 buffer, measurements were performed at 25 °C. […] In the pre-experiments, it was carefully checked for both proteins, WT and Y160W mutant whether any sign of aggregation or inactivation occurs, and if mutant behaviour is similar to that of the WT enzyme. An example of the raw thermophoretic curves obtained with the relative heating laser power at 60% and 80% are shown in the Supplementary Information (Figure S7).
Experiments of the nucleoside analogue binding were performed in the presence of saturating concentration of phosphate, i.e. 50 mM. For both, WT PNP and Y160W mutant seven repetitions of each curve were measured, for a single power of the heating laser. The power of the heating laser at which the strongest change of the thermophoretic signal upon ligand binding occurs was selected, namely 80% for both enzyme variants. The raw MST traces, for two highest tested laser powers, 60% and 80%, are presented in the Supplementary information (Figure S7) Protein concentration in the capillary was constant and equal to 0.215 μM and 0.0751 μM for the WT protein and the Y160W mutant, respectively. Series of titrations were analysed globally using the DynaFit4 program[40] (see below).
Three models were taken into account in analysis of binding curves: model with one (first equation below), two (first two equations) and three binding sites. P+L⇔PLwithKd1PL+L⇔PLLwithKd2PLL+L⇔PLLLwithKd3
The model with one binding site is based on the assumption that all monomers are equivalent, and there is no cooperation between them. In the model with two binding sites the basic functional unit of the protein is a dimer, possible non-equivalence of binding sites or cooperativity between active sites in the dimer are taken into account (in the case of no cooperativity dissociation constants should be related statistically: Kd2 = 4Kd1), the dimers within hexamer are equivalent. The model with three binding sites is based on the crystallographic structures of binary and ternary complexes of PNP with ligands, where two of the dimers are in the “open-closed” conformation, but the third dimer is symmetrical, in the “open-open” conformation. Thus, active sites in the open conformation belonging to “open-closed” and “open-open” dimer may not be equivalent. […]
Titration series were analysed globally, always starting from the simplest, one-binding-site model. […] For all tested models the Akaike information criterion[23] was also calculated. […] Analysed models were fitted to the raw data, whereas graphs presented in this study were prepared from the normalised data and the fitted curves. […] Responses are defined as changes in a measured physical quantity related to the formation of subsequent protein–ligand complexes: intrinsic protein fluorescence intensity, fluorescence intensity of the dye, heat and ellipticity for fluorimetric, thermophoretic, calorimetric and CD titrations, respectively. […]

For assay [2], the target named is T2, WT E. coli PNP (Escherichia coli, UniProt P0ABP8).
T2 construct: made in house
T2 sequence (P0ABP8 2-239 limits assumed): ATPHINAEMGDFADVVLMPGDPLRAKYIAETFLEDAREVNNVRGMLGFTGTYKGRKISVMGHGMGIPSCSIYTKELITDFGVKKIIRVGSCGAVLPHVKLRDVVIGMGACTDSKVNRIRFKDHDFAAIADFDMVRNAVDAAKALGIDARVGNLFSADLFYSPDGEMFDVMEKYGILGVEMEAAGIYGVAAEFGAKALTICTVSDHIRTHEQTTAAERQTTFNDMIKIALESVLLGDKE
As to the kind of experiment: Inhibition of m^7Guo phosphorolysis. Type of assay: biochemical. The following applies: competitive inhibition Eq. (3), m^7Guo as variable substrate, 50 mM phosphate, pH 7.0, 25 °C. The procedure: All activity measurements and kinetic studies were done in 50 mM Hepes/HCl buffer pH 7.0 at 25 °C as previously described for the WT E. coli PNP and its active-site mutants, using direct spectrophotometric assay for adenosine, guanosine and 7-methylguanosine as substrates, and a coupled assay with xanthine oxidase in the case of inosine[13],[28],[29]. Activity measurements were performed for each protein sample, before and after each experiment as a control of the state of the protein.
To determine inhibition model and inhibition constant for formycin A, rate of phosphorolysis with m^7Guo as a variable substrate, at constant, 50 mM, phosphate concentration, was registered in the absence of the inhibitor and in the presence of two different concentrations of formycin. A global fitting to the whole data set was performed, using various models (competitive, uncompetitive, noncompetitive, mixed). As expected for the substrate analogue, competitive model described the data sufficiently well:3 v0c0=Vmax1c0/c0+KM1+ci/Ki where ci is inhibitor concentration. Kinetic data were analysed using the GraphPad Prism program (Intuitive Software for Science, San Diego, CA, USA).

Assay [3] has as its target Y160W PNP mutant (Escherichia coli, UniProt P0ABP8, Y161W). The experiment in a line: Thermophoretic (MST) titrations with phosphate. The arrangement: made in house; host or cells: E. coli DH5α-T1; species or system E. coli. The conditions noted are these: two-binding-site model, 25 °C. The procedure: as §1, with “An example of the raw thermophoretic curves obtained with the relative heating laser power at 60% and 80% are shown in the Supplementary Information (Figure S7).” left out
For experiments of the binary complex formation with phosphate, curves were measured at four different powers of the heating laser. Two to five titrations at each heating power were measured, and curves were averaged for a particular heating power. […] This is an area inaccessible in fluorescence titration due to the quenching of the protein fluorescence at such a high ionic strength of the solution. […]
Titration series were analysed globally, always starting from the simplest, one-binding-site model. […] For all tested models the Akaike information criterion[23] was also calculated. […]

Y160W PNP mutant, sequence (P0ABP8 2-239 Y161W): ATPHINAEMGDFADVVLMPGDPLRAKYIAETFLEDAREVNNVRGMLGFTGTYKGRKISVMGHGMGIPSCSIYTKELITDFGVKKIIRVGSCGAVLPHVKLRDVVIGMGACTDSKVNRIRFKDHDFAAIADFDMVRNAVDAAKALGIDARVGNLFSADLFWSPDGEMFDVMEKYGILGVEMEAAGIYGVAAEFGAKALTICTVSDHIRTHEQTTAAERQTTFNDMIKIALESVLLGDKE

For the compound `Nc1ncnc2c([C@@H]3O[C@H](CO)[C@@H](O)[C@H]3O)[nH]nc12` [FA, Formycin A], the figures for the Kd in assay [1] (Kd1 ± SD) and in assay [1] (Kd3 ± SD) were 0.0107 µM and 186 µM, respectively. The affinity in assay [2] corresponds to a Ki of 5.3 ± 0.4 µM.
Regarding `O=P(O)(O)O` [Pi, Orthophosphate], the Kd turned out to be 3.2 µM in assay [3] (50 mM Tris/HCl pH 7.6, read-out: Kd1 ± SD) and 1280 µM in assay [3] (50 mM Tris/HCl pH 7.6, read-out: Kd3 ± SD).
